Results on eight compounds are retold here after the NIST ThermoML archive (doi:10.1016/j.jct.2016.05.023).

For this data set the following is noted: for Glass transition temperature: DSC; for Normal melting temperature: Crystal, DTA.

Molecules are shown by their SMILES. Numbers after ± are expanded uncertainties.

Regarding `CC(=O)[O-].CCCCn1cc[n+](C)c1` [1-butyl-3-methylimidazolium acetate], the Glass transition temperature was -63 ± 2 °C.

On to `CC(=O)[O-].CCn1cc[n+](C)c1` [1-ethyl-3-methylimidazolium acetate], for which the Glass transition temperature was -71 ± 2 °C.

For `CC(=O)[O-].CCCCCCCCCCCCCC[P+](CCCCCC)(CCCCCC)CCCCCC` [trihexyl(tetradecyl)phosphonium acetate], the Normal melting temperature was -67 ± 2 °C.

In the case of `CCCCn1cc[n+](C)c1.[Cl-]` [1-butyl-3-methylimidazolium chloride], the Glass transition temperature is -52 ± 2 °C.

Take `CCn1cc[n+](C)c1.[Cl-]` [1-ethyl-3-methylimidazolium chloride]: the Normal melting temperature was 84 ± 2 °C.

`CCCCCCCCCCCCCC[P+](CCCCCC)(CCCCCC)CCCCCC.[Cl-]` [trihexyl(tetradecyl)phosphonium chloride]: the Normal melting temperature is -66 ± 2 °C.

As for `CCCCCCCC[n+]1ccn(C)c1.[Cl-]` [1-methyl-3-octylimidazolium chloride], the Glass transition temperature is -74 ± 2 °C.

Consider `CCCCCCn1cc[n+](C)c1.[Cl-]` [1-hexyl-3-methylimidazolium chloride], for which the Glass transition temperature is -65 ± 2 °C.
